From patent US10280170B2, “Substituted 4,5,6,7-tetrahydro-pyrazolo[1,5-a]pyrazine derivatives and 5,6,7,8-tetrahydro-4H-pyrazolo[1,5-a][1,4]diazepine derivatives as Ros1 inhibitors” (Janssen Pharmaceutica NV, priority 2014, dated 2019)
Like-named read-outs stand apart in the source and are kept apart here.

What was measured:
[1] = target: T1, Ros1 enzyme (Homo sapiens, UniProt P08922); assay: Ros1 enzymatic assay; assay type: biochemical; settings: Ros1 enzymatic assay; read-out: ROS1 pIC50 (converted)
T1 construct: 0.5 μg/ml Ros1 enzyme
Method: Compounds were spotted onto white 384-well Proxiplate plus plates (Perkin Elmer) to which 5 μl of enzyme mix (0.5 μg/ml Ros1 enzyme, 50 mM Tris-HCl pH7.5, 1 mM EGTA, 10 mM MgCl2, 0.01% Tween-20) and 5 μl of substrate mix (6 μg/ml IRS-Tide [American Peptide Company], 20 μM ATP, 13.33 μCi/ml ATP (adenosine 5′-triphosphate) P^33, 50 mM Tris-HCl pH7.5, 1 mM EGTA (ethylene glycol-bis(2-aminoethylether)-N,N,N′,N′-tetraacetic acid), 10 mM MgCl2, 0.01% Tween-20) were added. After incubation for 120 minutes at room temperature, 10 μl of stop reaction buffer (5 mM EDTA, 50 μM ATP, 0.1% BSA (bovine serum albumin), 0.1% Triton X-100, 50 mM Tris-HCl pH7.5, 1 mM EGTA, 10 mM MgCl2, 0.01% Tween-20) containing 2 mg/ml streptavidin coupled polystyrene imaging beads (Amersham Biosciences) was added and incubated for 15 minutes at room temperature. Plates were centrifuged for 3 minutes at 1500 rpm and signals detected in a LEADseeker imaging system (GE).

[2] = target: Ba/F3 cells containing Ros1 with a mutation at the gatekeeper residue (L2026M) (Homo sapiens, UniProt P08922, L2026M, cells depend on it, form not given); assay: Ba/F3-Ros1 cell proliferation assay, L2026M gatekeeper mutant; assay type: cell-based, murine; settings: without IL-3
Method: (§1) Ba/F3-Ros1 Cell Proliferation Assay
(§2) This assay was carried out with Ba/F3 cells containing three different versions of Ros1: the wild-type protein, protein with a mutation at the gatekeeper residue (L2026M), and protein with a mutation identified in a tumor from a patient that became resistant to crizotinib (Xalkori®) treatment (G2032R). Compounds were solubilized in 100% DMSO (dimethyl sulfoxide) and sprayed into polystyrene, tissue culture treated 384-well plates. A 50 μl volume of cell culture medium (phenol red free RPMI-1640, 10% FBS (fetal bovine serum), 2 mM L-Glutamine) containing 20000 Ba/F3-Ros1 cells was added to each well and the plates were placed in an incubator at 37° C. and 5% CO2. After 24 hours, 10 μl of Alamar Blue solution (0.5 mM K3Fe(CN)6, 0.5 mM K4Fe(CN)6, 0.15 mM Resazurin and 100 mM Phosphate Buffer) was added to the wells, incubated for 4 hours at 37° C. and 5% CO2 before RFU's (Relative Fluorescence Units) (ex. 540 nm., em. 590 nm.) were measured in a fluorescence plate reader.

[3] = tested on: Ba/F3 cells containing Ros1 wild-type protein + IL-3; assay: Ba/F3-Ros1 cell proliferation counter-screen, wild-type protein in the presence of 10 ng/ml murine IL-3; assay type: cell-based; settings: Mus musculus, BaF3, 24 h, read-out: BaF3-ROS1 + IL3 pIC50 (converted)
Method: as §2
As a counter-screen the same experiment was performed for the wild-type protein in the presence of 10 ng/ml murine IL-3.

[4] = target: T2, Ba/F3 cells containing Ros1 wild-type protein (Homo sapiens, UniProt P08922, cells depend on it, form not given); assay: Ba/F3-Ros1 cell proliferation assay, wild-type Ros1; assay type: cell-based, murine; settings: without IL-3
T2 construct: The background only speaks of 'a number of different unrelated proteins' and names SLC34A2-ROS1 for HCC78 cells
Method: as §1, §2

[5] = counter-screen, wild-type, 10 ng/ml murine IL-3

T2 sequence (P08922 whole entry, stated change not applied): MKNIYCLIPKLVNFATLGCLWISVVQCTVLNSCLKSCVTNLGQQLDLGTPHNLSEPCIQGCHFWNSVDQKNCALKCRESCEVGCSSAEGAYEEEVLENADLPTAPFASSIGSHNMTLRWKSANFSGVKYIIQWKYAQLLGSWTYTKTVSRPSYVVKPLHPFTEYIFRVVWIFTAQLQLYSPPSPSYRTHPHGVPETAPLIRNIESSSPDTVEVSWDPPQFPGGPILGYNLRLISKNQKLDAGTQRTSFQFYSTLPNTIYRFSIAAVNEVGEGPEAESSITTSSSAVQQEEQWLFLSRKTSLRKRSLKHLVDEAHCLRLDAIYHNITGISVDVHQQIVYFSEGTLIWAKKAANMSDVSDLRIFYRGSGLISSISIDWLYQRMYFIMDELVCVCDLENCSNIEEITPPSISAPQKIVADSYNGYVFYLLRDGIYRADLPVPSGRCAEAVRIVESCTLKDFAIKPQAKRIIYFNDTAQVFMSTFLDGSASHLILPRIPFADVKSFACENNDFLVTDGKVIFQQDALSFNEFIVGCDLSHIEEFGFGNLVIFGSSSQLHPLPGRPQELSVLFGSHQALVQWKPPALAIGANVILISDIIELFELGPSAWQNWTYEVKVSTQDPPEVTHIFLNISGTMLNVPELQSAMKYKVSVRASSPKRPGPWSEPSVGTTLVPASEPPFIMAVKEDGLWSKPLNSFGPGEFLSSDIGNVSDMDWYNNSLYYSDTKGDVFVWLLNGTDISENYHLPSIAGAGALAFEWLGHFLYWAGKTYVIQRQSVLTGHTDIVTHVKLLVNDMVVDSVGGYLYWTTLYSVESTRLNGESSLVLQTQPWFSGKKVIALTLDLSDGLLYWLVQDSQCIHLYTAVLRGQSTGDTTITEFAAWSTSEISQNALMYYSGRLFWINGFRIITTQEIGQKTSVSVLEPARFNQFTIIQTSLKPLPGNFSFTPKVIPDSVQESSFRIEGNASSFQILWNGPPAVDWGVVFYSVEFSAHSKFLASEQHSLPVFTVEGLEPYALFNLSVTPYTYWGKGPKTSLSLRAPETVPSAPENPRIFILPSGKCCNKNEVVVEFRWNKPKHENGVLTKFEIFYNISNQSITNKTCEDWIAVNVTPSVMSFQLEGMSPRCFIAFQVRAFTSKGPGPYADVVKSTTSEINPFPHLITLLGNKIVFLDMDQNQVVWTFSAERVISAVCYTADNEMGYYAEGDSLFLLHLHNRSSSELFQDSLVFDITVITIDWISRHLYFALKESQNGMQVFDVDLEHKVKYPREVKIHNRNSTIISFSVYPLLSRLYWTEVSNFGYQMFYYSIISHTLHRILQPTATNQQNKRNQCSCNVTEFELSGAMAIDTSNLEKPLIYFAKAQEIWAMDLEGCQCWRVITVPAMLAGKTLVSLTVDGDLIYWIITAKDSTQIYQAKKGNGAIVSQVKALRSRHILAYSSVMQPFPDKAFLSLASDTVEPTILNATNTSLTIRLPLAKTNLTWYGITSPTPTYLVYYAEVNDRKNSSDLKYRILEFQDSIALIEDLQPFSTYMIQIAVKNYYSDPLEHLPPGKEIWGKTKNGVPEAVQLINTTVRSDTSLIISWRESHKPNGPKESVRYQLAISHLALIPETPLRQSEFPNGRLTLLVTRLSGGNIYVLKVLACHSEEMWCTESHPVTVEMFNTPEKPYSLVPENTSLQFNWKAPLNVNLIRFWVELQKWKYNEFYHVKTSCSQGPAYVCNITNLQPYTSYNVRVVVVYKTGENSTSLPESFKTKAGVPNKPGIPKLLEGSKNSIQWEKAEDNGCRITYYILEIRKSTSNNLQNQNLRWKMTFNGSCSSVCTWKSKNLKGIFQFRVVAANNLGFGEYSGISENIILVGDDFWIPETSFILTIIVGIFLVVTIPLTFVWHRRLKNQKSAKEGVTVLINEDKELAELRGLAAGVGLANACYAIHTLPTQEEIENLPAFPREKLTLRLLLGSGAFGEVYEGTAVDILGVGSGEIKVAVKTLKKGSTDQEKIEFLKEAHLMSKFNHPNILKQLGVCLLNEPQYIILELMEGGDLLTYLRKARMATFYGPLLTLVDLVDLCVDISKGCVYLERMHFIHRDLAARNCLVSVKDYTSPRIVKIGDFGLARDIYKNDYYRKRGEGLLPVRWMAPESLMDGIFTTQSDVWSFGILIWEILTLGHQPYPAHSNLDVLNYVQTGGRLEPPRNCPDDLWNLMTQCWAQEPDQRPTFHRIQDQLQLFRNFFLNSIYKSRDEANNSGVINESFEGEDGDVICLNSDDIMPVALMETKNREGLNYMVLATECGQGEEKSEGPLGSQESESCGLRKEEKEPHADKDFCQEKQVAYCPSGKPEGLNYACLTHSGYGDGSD
Sequence of Ba/F3 cells containing Ros1 with a mutation at the gatekeeper residue (L2026M) (P08922 whole entry L2026M, form open): as the sequence (P08922 whole entry, stated change not applied) above, with L2026M counted along it
T1 sequence (P08922 28-2347): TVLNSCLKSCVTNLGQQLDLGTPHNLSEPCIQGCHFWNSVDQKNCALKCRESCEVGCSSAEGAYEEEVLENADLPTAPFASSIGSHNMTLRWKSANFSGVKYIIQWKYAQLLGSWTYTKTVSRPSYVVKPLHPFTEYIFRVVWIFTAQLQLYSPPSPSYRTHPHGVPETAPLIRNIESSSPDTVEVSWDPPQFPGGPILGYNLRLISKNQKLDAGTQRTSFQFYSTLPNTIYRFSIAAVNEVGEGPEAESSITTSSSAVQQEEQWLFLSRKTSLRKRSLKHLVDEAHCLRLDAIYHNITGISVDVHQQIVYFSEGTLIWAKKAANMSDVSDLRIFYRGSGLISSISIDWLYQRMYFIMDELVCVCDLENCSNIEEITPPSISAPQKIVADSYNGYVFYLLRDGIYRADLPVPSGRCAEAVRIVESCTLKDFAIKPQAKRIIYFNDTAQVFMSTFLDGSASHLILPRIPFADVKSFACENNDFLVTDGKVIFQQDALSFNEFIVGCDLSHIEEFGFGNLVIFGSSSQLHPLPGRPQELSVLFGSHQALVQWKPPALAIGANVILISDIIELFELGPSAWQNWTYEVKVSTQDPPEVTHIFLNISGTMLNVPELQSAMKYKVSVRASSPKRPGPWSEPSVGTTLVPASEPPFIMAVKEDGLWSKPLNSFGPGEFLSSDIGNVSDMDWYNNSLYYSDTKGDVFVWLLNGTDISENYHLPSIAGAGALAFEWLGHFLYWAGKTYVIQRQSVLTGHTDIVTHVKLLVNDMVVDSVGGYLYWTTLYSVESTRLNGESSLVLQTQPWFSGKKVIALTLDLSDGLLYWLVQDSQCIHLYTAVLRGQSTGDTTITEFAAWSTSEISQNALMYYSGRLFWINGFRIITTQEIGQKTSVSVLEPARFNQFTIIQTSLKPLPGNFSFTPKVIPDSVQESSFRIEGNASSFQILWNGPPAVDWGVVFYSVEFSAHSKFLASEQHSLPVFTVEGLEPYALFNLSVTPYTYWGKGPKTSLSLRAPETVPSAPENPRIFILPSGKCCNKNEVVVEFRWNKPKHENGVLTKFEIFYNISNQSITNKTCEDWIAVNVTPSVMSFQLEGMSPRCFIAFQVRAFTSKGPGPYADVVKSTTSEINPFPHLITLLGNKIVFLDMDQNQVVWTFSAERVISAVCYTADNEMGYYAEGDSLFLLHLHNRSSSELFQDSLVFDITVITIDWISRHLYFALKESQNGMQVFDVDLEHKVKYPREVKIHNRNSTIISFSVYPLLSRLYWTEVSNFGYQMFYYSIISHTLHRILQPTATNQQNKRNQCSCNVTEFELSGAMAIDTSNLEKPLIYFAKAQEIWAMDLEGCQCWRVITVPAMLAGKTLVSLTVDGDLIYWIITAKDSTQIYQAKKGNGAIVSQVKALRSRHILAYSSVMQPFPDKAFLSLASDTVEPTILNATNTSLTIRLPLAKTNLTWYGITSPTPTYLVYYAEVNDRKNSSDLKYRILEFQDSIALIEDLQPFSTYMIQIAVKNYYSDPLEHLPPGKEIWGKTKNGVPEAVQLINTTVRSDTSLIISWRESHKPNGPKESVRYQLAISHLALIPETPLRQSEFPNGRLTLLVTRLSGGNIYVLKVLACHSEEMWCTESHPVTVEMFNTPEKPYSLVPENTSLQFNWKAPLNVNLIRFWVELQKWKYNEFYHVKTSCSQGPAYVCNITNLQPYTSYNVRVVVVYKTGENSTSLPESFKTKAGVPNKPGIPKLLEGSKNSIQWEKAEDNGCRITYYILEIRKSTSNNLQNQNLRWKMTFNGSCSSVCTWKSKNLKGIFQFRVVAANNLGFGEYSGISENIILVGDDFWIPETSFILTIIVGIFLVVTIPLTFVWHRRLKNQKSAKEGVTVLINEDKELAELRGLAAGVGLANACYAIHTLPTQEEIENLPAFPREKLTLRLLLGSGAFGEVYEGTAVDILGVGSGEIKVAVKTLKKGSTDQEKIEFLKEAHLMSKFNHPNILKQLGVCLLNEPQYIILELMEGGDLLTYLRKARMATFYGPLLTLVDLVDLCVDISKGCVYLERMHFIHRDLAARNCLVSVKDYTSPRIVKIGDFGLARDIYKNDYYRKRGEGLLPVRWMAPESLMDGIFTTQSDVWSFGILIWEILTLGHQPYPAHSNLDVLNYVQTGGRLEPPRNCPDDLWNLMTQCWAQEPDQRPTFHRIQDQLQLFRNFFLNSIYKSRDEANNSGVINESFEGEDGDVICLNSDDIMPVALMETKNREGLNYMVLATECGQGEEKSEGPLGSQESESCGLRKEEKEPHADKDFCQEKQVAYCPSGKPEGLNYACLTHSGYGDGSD

Compound | IC50 [1] [nM] | melting point [°C] | Ba/F3 Ros1 L2026M (-IL-3) pIC50 [2] | CC50 [3] [nM] | BaF3-ROS1-IL3 pIC50 [4] | CC50 [3, 5] [nM]
[2H]C([2H])(O)C([2H])([2H])N1CCn2nc(-c3ccncc3)c(-c3ccc(OCc4ccc(C(C)C)cc4)cc3)c2C1=O [Compound 67] | 25.1 | 179 | 7.1 | > 10000 | 7.9 | 
CC(C)c1ccc(COc2ccc(-c3c(-c4ccncc4)nn4c3C(=O)N(C(=O)OC(C)(C)C)CC4)cc2)cc1 [Compound 70] | 3160 | 147 | 6.1 |  | 6.4 | > 10000
CC(C)c1ccc(COc2ccc(-c3c(-c4ccncc4)nn4c3C(=O)N(CCO)CC4)cc2)cc1CCO [Compound 83] | 20 | 176 | 7.2 | > 10000 | 7.6 | 
CC(C)c1ccc(COc2ccc(-c3c(-c4ccncc4)nn4c3C(=O)N(CC(O)CO)CC4)cc2)c(F)c1F (centres unmarked) [Compound 102] | 794 | 191 | 6.4 |  | 6.7 | 
N#Cc1ccc(COc2ccc(-c3c(-c4ccncc4)nn4c3C(=O)NCC4)cc2)cc1Cl [Compound 141] | 631 | 257 |  | > 10000 | 6.4 | 
COc1ccc(COc2ccc(-c3c(-c4ccncn4)nn4c3C(=O)NCC4)cc2)cc1 [Compound 157] | 1000 | 264 |  | > 10000 | 6.1 | 
O=C1NCCn2nc(-c3ccncn3)c(-c3ccc(OCc4ccc(C5CC5)cc4)cc3)c21 [Compound 166] | 63.1 | 268 |  |  | 6.9 | > 10000
CC(C)c1ccc(COc2ccc(-c3c(-c4cc[n+]([O-])cc4)nn4c3C(=O)NCC4)cc2)cc1 [Compound 170] | 6310 | 227 |  |  | 5.2 | > 10000
CC(C)NC(=O)CN1CCn2nc(-c3ccncc3)c(-c3ccc(OCc4ccc(C(C)C)cc4)cc3)c2C1 [Compound 178] | 200 | 188 |  |  | 6.6 | > 10000
c1cc(-c2nn3c(c2-c2ccc(OCc4ccc(C5CC5)nc4)cc2)CNCC3)ccn1 [Compound 186] | 1000 | 195 |  |  | 6.2 | > 10000
CC1CNCc2c(-c3ccc(OCc4ccc(C5CC5)cc4)cc3)c(-c3ccncc3)nn21 (centres unmarked) [Compound 197] | 794 | 153 |  |  | 5.8 | > 10000
CC(C)c1ccc(COc2ccc(-c3c(-c4ccncc4)nn4c3CN(CCN)CC4)cc2)cc1 [Compound 210] | 63.1 | 197 |  |  | 6.3 | 6310
CC(C)c1ccc(COc2ccc(-c3c(-c4ccncn4)nn4c3CNCC4)cc2)cc1 [Compound 219] | 1260 | 150 |  |  | 6.0 | > 10000
CC(C)c1ccc(COc2ccc(-c3c(-c4ncnc5[nH]ccc45)nn4c3C(=O)NCC4)cc2)cc1 [Compound 222] | 200 | 238 |  | > 10000 | 7.0 | 
COc1ncc(COc2ccc(-c3c(-c4ccncc4)nn4c3C(=O)NCC4)cc2)cn1 [Compound 229] | > 10000 | 248 |  |  | <5 | > 10000
N#Cc1ncc(COc2ccc(-c3c(-c4ccncc4)nn4c3C(=O)NCC4)cc2)cc1Cl [Compound 230] | > 10000 | 277 |  |  | 5.2 | > 10000
CC(C)c1ccc(COc2ccc(-c3c(-c4ccncc4)nn4c3CNC(=O)C4)cc2)cc1 [Compound 237] | 794 | 281 |  | > 10000 | 6.8 | 
